Data set [1] concerns the target SMUG1 (Homo sapiens (Human), UniProt Q53HV7). The data set is described as follows: SMUG1 assay. The format is biochemical. The settings on record: 20 μM inhibitor. As for the experimental part:
(See, e.g., Ono, T., et al., Nucleic Acids Res. 2013, 41, e127-e127, the disclosure of which is incorporated herein by reference.) Enzyme (500 U/mL) was pre-incubated for 5 minutes with 20 μM inhibitor or vehicle or at 37° C. in 50 mM Tris (pH 7.4), 1 mM DTT and 0.5 mM EDTA. Probe 2 (1 μM) was added and the fluorescent signal was plotted over 15 minutes to calculate initial rate. Inhibitor rates were normalized against the vehicle control rate.

Data set [2] addresses T1, OGG1 (Homo sapiens (Human), UniProt O15527). Put plainly: Km and Kcat study (Michaelis-Menten / Lineweaver-Burk) of OGG1 with inhibitor. The class given is biochemical. As for the experimental part: Methods: For Michaelis-Menten curves: Inhibitor 41 and hOGG1 (100 nM) were incubated in NEBuffer 4 (1×) with BSA (1×) at 37° C. (15 min) in 100 μL reaction volumes in a black 96-well plate. After that, OGR1 (0.8-10 μM) was added to the reaction mixture. Fluorescence at 460 nm was measured on a Thermo Fluoroskan Ascent FL fluorescence plate reader (Aex=355 nm). The initial rate (12 min) was calculated. Lineweaver-Burk plot was leaded from the Michaelis-Menten curves. Km and Vmax were calculated from the equation. Kcat was calculated from Kcat=Vmax/[enzyme].

The target in data set [3] is T1, OGG1. The data set is described as follows: Surface plasmon resonance (SPR) binding to OGG1. As for the experimental part:
Additional embodiments utilize surface plasmon resonance (SPR) to investigate the binding of various compounds to OGG1. […] Specifically, FIG. 8A illustrates a sensorgram plot of binding response versus time, while FIG. 8B illustrates binding response versus concentration of an inhibitor. Further, FIG. 8C provides Ka, Kd and KD values that are calculated for compounds of various embodiments. These figures indicate that certain embodiments bind strongly to OGG1.

Data set [4] can be described thus: Half-life / pharmacokinetics after intraperitoneal dosing. The class given is in vivo. The settings on record: mice, IP, 3 mg/kg. The protocol:
Methods: Each OGG1 inhibitor was dosed by intraperitoneal (IP) and oral (PO) routes of administration at a target dose of 3 mg/kg. Blood samples were collected up to 24 hours post-dose, and blood concentrations of the test articles were determined by LC-MS/MS. Pharmacokinetic parameters were determined using Phoenix WinNonlin (v8.0) software

The test system of data set [5] is HEK293T cells. Put plainly: MTT assay, HEK293T. The class given is cell-based, human. The settings on record: 24 h. The protocol: Methods: HEK293T cells (concentration of 1.6×10^4 cells per well) and HeLa cells (concentration of 1.2×10^4 cells per well) were seeded to 96-well plate in supplemented DMEM culture medium (10% FBS, 100 U Pen./Strep.) and incubated for 30 h (HEK293T cells) and 16 h (HeLa cells) at +37° C. and 5% CO2. […] After the incubation period, 10 μL of the MTT labeling reagent (final concentration 0.5 mg/ml) was added to each well, and incubated at +37° C. and 5%. 100 μl of the solubilization solution was added into each well, and incubated for 20 h at +37° C. and 5%. Absorbance of the samples was measured by using a microplate reader Tecan Infinite M1000 at 550, and 650 nm. […] In the rest of the samples (10 μM, 1 μM, 100 nM, and 10 nM) concentration of DMSO was at the level of 1%. The controls were prepared: Ctrl—cells cultured only in the supplemented DMEM; Ctrl 5% DMSO—cells cultured in 5% DMSO in the supplemented DMEM; Ctrl 1% DMSO—cells cultured in 1% DMSO in the supplemented DMEM.
(Tetrazolium dyes change colour on reduction, which living cells bring about.)

Data set [6] concerns the target hABH3 (Homo sapiens (Human), UniProt Q96Q83). The data set is described as follows: ABH3 assay (MAQ probe). The class given is biochemical. The settings on record: 20 μM inhibitor. The protocol: Enzyme (0.5 μM) was pre-incubated for 5 minutes with 20 μM inhibitor or vehicle or at 37° C. in 50 mM HEPES buffer (pH 8.0) containing 75 μM Fe(NH4)2(SO4)2, (See, e.g., Beharry, A. A., et al., J. Am. Chem. Soc. 2016, 138, 3647-3650, the disclosure of which is incorporated herein by reference.) 1 mM α-ketoglutarate, 2 mM Sodium ascorbate, 50 μg/ml BSA and 0.4 mg/ml Catalase. The MAQ probe (1 μM) was added and fluorescent signal plotted over 10 minutes to calculate initial rate. Inhibitor rates were normalized against the vehicle control rate.3

Data set [7] deals with T1, OGG1. The data set is described as follows: OGG1 inhibitor assay with fluorogenic OGR1 probe (base excision, initial rates). The class given is biochemical. As for the experimental part: Methods: Synthesized compounds and hOGG1 (100 nM) were incubated in NEBuffer 4 (1×) with BSA (1×) at 37° C. (15 min) in 100 μL reaction volumes in a black 96-well plate. (See, e.g., Edwards, S. K., et al., ChemBioChem 2015, 16, 1637-1646, the disclosure of which is incorporated herein by reference.) After that, OGR1 (1.2 μM) was added to the reaction mixture. Fluorescence at 460 nm was measured on a Thermo Fluoroskan Ascent FL fluorescence plate reader (λex=355 nm). The slope of initial rate (12 min) was calculated, and % of control was used for inhibition activity. BSA, hOGG1 and NEBuffer 4 were purchased from New England Biolabs and used. UltraPure Distilled Water (Invitrogen) was purchased and used for the assay.

Data set [8] concerns the target NUDT16 (Homo sapiens (Human), UniProt Q96DE0). The data set is described as follows: NUDT16 assay. The class given is biochemical. To be noted: 20 μM. As for the experimental part: After 1 h incubation at 37° C., 5 μL of this reaction solution was added to 20 μL Kinase-Glo Luminescent Kinase Assay reaction solution (prepared as instructed for the ATP determination kit) in a 96 well plate. The bioluminescence signal was recorded at 1 min intervals over 10 min.

Data set [9] addresses ABH2 (Homo sapiens (Human), UniProt Q6NS38). Put plainly: ABH2 assay. The format is biochemical. To be noted: 20 μM inhibitor. As for the experimental part: Enzyme (0.5 μM) was pre-incubated for 5 minutes with 20 μM inhibitor or vehicle or at 37° C. in 50 mM HEPES buffer (pH 8.0) containing 75 μM Fe(NH4)2(SO4)2, 1 mM α-ketoglutarate, 2 mM Sodium ascorbate, 50 μg/ml BSA and 0.4 mg/ml Catalase. The probe (1 μM) was added and fluorescent signal plotted over 10 minutes to calculate initial rate. Inhibitor rates were normalized against the vehicle control rate.

The structures appear in SMILES notation. Several values for one entry are separate records, joined by “and”; a condition that tells them apart may be missing. Equal entries are not always repeated.

T1 sequence (O15527 whole entry): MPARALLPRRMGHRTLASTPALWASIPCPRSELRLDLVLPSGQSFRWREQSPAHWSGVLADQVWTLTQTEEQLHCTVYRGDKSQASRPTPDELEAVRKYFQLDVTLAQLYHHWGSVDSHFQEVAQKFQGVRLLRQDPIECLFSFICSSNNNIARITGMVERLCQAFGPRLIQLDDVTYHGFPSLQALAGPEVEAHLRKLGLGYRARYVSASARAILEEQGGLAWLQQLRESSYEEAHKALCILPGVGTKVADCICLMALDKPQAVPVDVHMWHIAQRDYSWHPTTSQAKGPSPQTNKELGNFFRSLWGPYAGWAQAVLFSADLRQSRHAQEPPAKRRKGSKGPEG
Sequence of NUDT16 (Q96DE0 whole entry, species assumed): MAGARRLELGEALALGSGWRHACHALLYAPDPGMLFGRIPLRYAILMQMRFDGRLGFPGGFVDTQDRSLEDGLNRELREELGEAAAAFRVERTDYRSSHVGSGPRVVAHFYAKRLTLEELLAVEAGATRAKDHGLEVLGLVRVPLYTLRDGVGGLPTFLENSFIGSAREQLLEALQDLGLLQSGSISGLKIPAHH
Sequence of SMUG1 (Q53HV7 whole entry, species assumed): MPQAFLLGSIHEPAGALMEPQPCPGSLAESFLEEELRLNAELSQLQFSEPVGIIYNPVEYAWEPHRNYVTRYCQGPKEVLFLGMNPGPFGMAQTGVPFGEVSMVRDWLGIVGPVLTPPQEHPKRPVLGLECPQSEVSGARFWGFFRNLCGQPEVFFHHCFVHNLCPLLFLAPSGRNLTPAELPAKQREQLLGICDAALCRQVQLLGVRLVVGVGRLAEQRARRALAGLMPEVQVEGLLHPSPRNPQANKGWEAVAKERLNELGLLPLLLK
Sequence of ABH2 (Q6NS38 whole entry, species assumed): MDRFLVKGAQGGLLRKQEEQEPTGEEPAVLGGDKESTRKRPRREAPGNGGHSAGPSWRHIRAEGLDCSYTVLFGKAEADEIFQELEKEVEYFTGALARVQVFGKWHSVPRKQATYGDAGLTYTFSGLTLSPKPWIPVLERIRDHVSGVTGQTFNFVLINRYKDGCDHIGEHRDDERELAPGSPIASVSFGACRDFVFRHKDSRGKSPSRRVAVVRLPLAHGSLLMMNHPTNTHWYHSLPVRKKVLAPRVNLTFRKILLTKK
Sequence of hABH3 (Q96Q83 whole entry): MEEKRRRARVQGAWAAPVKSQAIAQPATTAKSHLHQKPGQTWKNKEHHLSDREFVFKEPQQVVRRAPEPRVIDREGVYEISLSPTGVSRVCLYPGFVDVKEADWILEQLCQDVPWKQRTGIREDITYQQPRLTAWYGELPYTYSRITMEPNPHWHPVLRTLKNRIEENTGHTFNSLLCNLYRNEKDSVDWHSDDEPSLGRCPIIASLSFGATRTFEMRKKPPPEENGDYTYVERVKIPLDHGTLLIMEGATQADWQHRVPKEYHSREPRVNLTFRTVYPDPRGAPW

For the compound `NC(=O)c1cccc(-c2ccc(S(=O)(=O)Nc3ccc4c(c3)N(C(=O)C3CC3)CCC4)cc2)c1` [Compound 41], the “SMUG1 enzyme activity in the presence of the inhibitor” value in data set [1] is recorded as roughly 100%. Further, in [2] (OGG1 with 200 nM 41), the Kcat is 0.057 s⁻¹, the Kcat/Km turned out to be 0.0070 s^−1μM^−1 and the Km was found to be 8.2 µM. Also, in data set [2] (OGG1 with 2 μM 41), the Kcat was determined as 0.040 s⁻¹, the Kcat/Km was 0.022 s^−1μM^−1 and the Km was 1.8 µM. For the same compound, in [3], the “binding to OGG1 by SPR” value is recorded as “binds strongly”. Moreover, in data set [4], the “average exposure, dose-normalized AUClast” value is 543±281 hr*kg*ng/m L/m g; the “maximum blood concentrations (average)” value stood at 1210 ± 206 ng/mL; the “time of maximum blood concentrations post dosing” value came to 15 min. In addition, in data set [4] (mean of three replicates, listed as SU0268), the “Half-life Mean” value is “approximately 4 hr and 4.02±0.709 hr and 4.02 hr”. Moreover, in [4] (replicate 1), the “Half-life R1” value came to 4.84 h. In addition, the “Half-life R3” value in data set [4] (replicate 3) was 3.60 h. In addition, in data set [5] (10 nM to 10 μM), the “cytotoxicity by MTT assay” value is “little or no cytotoxicity”. The “toxicity by MTT assay” value in data set [5] (100 μM) is on record as 30-50%. The “ABH3 enzyme activity in the presence of the inhibitor” value in [6] is on record as roughly 100%. The “Enzyme activity, % of control at 200 nM” value in data set [7] (200 nM compound, ratio of initial rate slope (first 12 min) to no-compound control) is 39 ± 2.5 % of control. Besides, the “Enzyme activity, % of control at 2 μM” value in data set [7] (2 μM compound, ratio of initial rate slope (first 12 min) to no-compound control) is recorded as 4.8 % of control. Also, 59 nM corresponded to half-maximal inhibition in [7] (initial rates method) (IC50). The “NUDT16 enzyme activity in the presence of the inhibitor” value in [8] is recorded as roughly 70%. The “ABH2 enzyme activity in the presence of the inhibitor” value in data set [9] was greater than 90%.

The term Km denotes the concentration of substrate that gives half-maximal velocity. As a reminder, the IC50 is the point on the concentration scale where inhibition reaches its midpoint. High values mean lower potency, low ones higher potency.

For the origin of these results see US11440887B2, “Substituted 1,2,3,4-tetrahydroquinolines as inhibitors of repair enzyme 8-oxoguanine deoxyribonucleic acid glycosylase activity” (The Board of Trustees of the Leland Stanford Junior …, priority 2017, dated 2022).
